Data taken from ChEMBL document CHEMBL1201862, “PubChem BioAssay data set” (2004).
Calls of active or inactive are those of the source.

What was measured:
Beta-lactamase [1] = biological target: Beta-lactamase (Pseudomonas aeruginosa, UniProt Q79MP6);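 also: biochemical dose-response test of metallo-beta-lactamase enzyme inhibition, read out by epi-absorbance; purified recombinant IMP-1 metallo-beta-lactamase with nitrocefin as substrate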
Beta-lactamase [2] = biological target: Beta-lactamase (Salmonella choleraesuis (strain SC-B67), UniProt Q5J463)
HeLa = test: viability loss in HeLa cells – cell-based, 24 h, cherry-picked samples, cytotoxicity control, dose response (AID 504726); type: functional; settings: Homo sapiens;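 also: potency for cytotoxicity as loss of luminescence signal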
ORF 73 = ORF 73 (Human herpesvirus 8, UniProt O40947); test: KSHV LANA DNA-binding disruption – biochemical, fluorescence polarization, cherry-picked samples, dose response (AID 504725); parameters: species or system Human gammaherpesvirus 8;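 also: fluorescence polarization of a labeled DNA duplex reporting LANA DNA binding; potency is for inhibitors that block LANA binding to the DNA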
Insulin-degrading enzyme [3] = biological target: T1, Insulin-degrading enzyme (Homo sapiens, UniProt P14735); test: recombinant IDE activation, cell-free – biochemical, fluorescence polarization, counter-screen for IDE activator project, dose response (AID 588681)
T1 sequence (P14735 whole entry): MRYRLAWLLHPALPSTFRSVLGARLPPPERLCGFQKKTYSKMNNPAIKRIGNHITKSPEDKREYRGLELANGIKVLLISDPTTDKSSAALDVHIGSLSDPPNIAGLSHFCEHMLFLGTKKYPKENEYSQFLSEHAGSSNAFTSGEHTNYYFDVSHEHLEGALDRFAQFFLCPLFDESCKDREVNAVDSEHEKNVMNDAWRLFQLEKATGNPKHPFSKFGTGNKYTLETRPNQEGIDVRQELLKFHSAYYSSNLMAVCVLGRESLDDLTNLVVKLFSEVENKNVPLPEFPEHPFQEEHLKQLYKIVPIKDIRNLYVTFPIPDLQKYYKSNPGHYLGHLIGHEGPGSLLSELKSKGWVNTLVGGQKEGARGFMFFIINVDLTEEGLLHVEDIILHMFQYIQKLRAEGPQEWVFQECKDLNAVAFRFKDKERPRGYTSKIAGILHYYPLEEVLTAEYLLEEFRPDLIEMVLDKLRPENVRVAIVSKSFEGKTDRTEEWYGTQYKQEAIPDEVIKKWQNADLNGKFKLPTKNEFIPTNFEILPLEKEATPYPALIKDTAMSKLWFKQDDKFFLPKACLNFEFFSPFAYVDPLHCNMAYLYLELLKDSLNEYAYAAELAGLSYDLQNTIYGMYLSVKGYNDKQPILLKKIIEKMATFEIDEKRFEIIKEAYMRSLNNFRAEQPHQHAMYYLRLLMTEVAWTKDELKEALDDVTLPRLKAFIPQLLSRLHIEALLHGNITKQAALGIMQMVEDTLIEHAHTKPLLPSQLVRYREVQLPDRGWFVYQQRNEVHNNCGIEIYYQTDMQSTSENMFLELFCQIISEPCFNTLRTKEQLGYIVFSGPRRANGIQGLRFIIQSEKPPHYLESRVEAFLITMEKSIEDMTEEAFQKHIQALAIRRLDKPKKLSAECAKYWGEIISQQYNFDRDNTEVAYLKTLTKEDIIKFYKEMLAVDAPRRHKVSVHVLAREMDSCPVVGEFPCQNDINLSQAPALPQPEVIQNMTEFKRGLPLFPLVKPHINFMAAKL

Insulin-degrading enzyme [4] = biological target: T1, Insulin-degrading enzyme; test: cellular IDE activation of Abeta substrate cleavage – fluorescence polarization, HEK cells, dose response (AID 588439); type: functional, cell-based
HEK293 [5] = test: membrane integrity loss in HEK cells – cell-based, fluorescence, cytotoxicity control for IDE activator project, dose response (AID 588440); type: functional; settings: Homo sapiens;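 also: cytotoxicity by LDH release measuring loss of membrane integrity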
[6] = biological target: Dual specificity tyrosine-phosphorylation-regulated kinase 1A (Rattus norvegicus, UniProt Q63470); type: biochemical, Homo sapiens
HEK293 [7] = test: optical interference in Abeta FP readout, dose response, artefact control for IDE activator project, biochemical, fluorescence polarization (AID 588442); type: functional, cell-based; settings: Homo sapiens
[8] = biological target: T2, Short transient receptor potential channel 4 (Mus musculus, UniProt Q9QUQ5); test: block of DAMGO-driven TRPC4 calcium entry – cell-based, HEK293 TRPC4/mu-opioid, Fluo-4 calcium, dose response (AID 434942); type: functional;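 also: potency of inhibitors blocking the TRPC4 calcium response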
T2 sequence (Q9QUQ5 whole entry): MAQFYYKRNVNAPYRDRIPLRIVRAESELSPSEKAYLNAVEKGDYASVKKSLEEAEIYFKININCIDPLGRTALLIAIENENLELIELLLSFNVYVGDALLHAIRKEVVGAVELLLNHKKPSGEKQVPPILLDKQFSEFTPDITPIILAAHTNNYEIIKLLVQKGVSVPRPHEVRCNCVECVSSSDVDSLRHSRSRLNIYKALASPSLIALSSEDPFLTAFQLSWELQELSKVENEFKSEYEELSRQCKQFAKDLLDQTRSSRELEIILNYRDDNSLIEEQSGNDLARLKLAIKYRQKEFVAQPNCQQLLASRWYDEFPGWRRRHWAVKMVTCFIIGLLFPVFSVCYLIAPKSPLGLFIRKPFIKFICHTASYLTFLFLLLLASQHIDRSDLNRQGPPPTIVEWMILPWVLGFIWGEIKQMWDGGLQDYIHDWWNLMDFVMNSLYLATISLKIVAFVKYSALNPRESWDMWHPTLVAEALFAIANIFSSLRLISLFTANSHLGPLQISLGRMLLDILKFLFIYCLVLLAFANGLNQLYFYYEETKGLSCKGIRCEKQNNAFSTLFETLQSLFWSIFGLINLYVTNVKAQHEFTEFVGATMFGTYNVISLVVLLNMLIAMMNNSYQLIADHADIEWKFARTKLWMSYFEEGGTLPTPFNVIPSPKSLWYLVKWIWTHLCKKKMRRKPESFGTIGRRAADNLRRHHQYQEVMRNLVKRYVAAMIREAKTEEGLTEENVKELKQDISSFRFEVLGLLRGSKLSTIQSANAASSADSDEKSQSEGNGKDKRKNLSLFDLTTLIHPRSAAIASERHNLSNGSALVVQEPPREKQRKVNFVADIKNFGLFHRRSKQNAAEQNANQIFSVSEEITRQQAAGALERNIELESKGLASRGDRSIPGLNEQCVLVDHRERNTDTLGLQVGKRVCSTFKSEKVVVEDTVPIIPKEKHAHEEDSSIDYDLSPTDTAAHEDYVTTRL

[9] = decrease of insulin promoter-GFP reporter – imaging, high-content screening, mouse beta cells (AID 1628); type: functional; settings: MIN6
[10] = MIN6 cell viability loss – mouse insulinoma, cytotoxicity control, dose response (AID 2122); type: functional;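 also: confirmatory high-throughput counterscreen run to flag cytotoxic compounds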
[11] = biological target: G-protein coupled receptor 35 (Homo sapiens, UniProt Q9HC97); test: inhibition of zaprinast-stimulated GPR35 beta-arrestin translocation – imaging, U2OS, beta-arrestin-GFP, zaprinast agonist, primary screen (AID 2058); type: functional;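 also: antagonist potency meaning inhibition of agonist-induced arrestin redistribution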
[12] = biological target: T3, Corticotropin-releasing factor receptor 2/Corticotropin-releasing factor-binding protein (Homo sapiens, UniProt P24387+Q13324); test: activators of CRF receptor 2 with binding protein – uHTS hits, confirmation (AID 602473); type: functional; settings: read-out: EC50_Mean
T3 sequence (Q13324 whole entry): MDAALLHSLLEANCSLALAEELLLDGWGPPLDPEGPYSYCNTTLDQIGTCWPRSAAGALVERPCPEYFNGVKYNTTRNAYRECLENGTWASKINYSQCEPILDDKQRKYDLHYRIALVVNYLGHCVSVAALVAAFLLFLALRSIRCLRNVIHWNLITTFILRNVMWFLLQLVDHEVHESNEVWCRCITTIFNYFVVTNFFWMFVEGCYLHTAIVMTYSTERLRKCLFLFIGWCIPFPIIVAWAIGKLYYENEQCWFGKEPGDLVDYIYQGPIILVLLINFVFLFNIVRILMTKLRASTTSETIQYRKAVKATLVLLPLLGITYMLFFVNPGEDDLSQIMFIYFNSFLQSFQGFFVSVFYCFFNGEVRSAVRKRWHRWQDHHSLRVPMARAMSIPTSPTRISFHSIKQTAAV
T3 sequence (P24387 whole entry): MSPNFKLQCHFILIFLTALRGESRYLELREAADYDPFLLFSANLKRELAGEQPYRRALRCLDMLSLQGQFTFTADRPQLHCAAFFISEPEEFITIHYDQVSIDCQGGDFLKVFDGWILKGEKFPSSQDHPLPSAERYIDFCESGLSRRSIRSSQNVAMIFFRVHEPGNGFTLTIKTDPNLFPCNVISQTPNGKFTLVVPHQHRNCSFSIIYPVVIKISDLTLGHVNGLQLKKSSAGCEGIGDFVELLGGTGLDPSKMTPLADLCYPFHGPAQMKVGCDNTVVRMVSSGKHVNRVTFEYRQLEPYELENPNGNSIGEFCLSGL

[13] = biological target: T2, Short transient receptor potential channel 4; test: calcium entry via TRPC4 opening agents – cell-based, HEK293 TRPC4/mu-opioid, Fluo-4 calcium, dose response (AID 434937); type: functional
Cytochrome P450 2C19 = Cytochrome P450 2C19 (Homo sapiens, UniProt P33261); test: Cytochrome panel assay with activity outcomes. Panel member name: p450-cyp2c19 Compounds with AC50 equal or less than 10 uM are considered active; type: functional; settings: read-out: AC50
Cytochrome P450 2D6 = Cytochrome P450 2D6 (Homo sapiens, UniProt P10635);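 also: CYP2D6 member of a cytochrome P450 panel assay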
Exodeoxyribonuclease V = Exodeoxyribonuclease V (Escherichia coli (strain K12), UniProt P04993+P07648+P08394); test: RecBCD inhibition via phage-restricted bacterial growth – absorbance, V66 E. coli, mutant T4 phage, counter-screen for AddAB inhibitor project, dose response (AID 492957); type: functional, cell-based, Escherichia coli str. K-12 substr. MG1655
Nonstructural protein 1 = Nonstructural protein 1 (Influenza A virus, UniProt Q194T2); type: functional, Influenza A virus (A/California/07/2009(H1N1))
[14] = Counterscreen for AddAB inhibitors: absorbance-based bacterial cell-based high throughput dose response assay for inhibitors of bacterial viability. [Related pubchem assays (depositor defined):AID435030, AID449728, AID449731, AID488942, AID488955, AID488956]; type: functional
[15] = HGIII-sPLA2 enzyme inhibition potency – biochemical, QFRET, IC50, dose response (AID 743457);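 also: green fluorescence rise as the enzyme cleaves BODIPY PC-A2 in liposomes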
Hexokinase = Hexokinase (Trypanosoma brucei, UniProt Q38C41); test: Confirmation assay for inhibitors of Trypanosoma brucei hexokinase 1-Analogue-first series. [Related pubchem assays (depositor defined):AID1430, AID1632, AID2516, AID2560, AID2579, AID2600, AID449725, AID492951]; type: functional
[16] = biological target: T4, Mannose-6-phosphate isomerase (Homo sapiens, UniProt P34949); test: phosphomannose isomerase inhibition – biochemical, fluorescence intensity, confirmation (AID 1535)
T4 sequence (P34949 whole entry): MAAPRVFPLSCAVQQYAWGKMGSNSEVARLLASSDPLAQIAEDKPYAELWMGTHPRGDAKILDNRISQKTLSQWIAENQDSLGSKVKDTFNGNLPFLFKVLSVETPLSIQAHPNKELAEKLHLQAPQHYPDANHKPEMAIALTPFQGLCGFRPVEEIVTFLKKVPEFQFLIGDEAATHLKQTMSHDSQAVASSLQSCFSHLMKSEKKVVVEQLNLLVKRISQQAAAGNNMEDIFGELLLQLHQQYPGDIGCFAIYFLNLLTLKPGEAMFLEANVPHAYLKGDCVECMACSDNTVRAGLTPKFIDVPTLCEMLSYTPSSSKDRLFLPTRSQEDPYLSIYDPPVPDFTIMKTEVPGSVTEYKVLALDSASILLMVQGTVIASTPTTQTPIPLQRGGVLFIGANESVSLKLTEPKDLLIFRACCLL

Phosphomannomutase 2 = Phosphomannomutase 2 (Homo sapiens, UniProt O15305); test: Counter screen SAR assay for PMM2 inhibitors via a fluorescence intensity assay. [Related pubchem assays (depositor defined):AID1545, AID1574]
[17] = biological target: Phosphoethanolamine/phosphocholine phosphatase (Homo sapiens, UniProt Q8TCT1); test: SAR assay for compounds that inhibit PHOSPHO1. [Related pubchem assays (depositor defined):AID1545, AID1565, AID1574]
Phosphoethanolamine/phosphocholine phosphatase, sequence (Q8TCT1 whole entry): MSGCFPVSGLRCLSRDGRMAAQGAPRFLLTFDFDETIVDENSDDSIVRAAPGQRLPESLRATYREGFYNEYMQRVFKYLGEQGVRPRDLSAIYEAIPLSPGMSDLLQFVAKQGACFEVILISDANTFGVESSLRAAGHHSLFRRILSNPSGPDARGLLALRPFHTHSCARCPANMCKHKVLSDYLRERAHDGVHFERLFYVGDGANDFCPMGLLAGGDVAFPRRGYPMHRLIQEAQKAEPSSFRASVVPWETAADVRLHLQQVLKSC

Phosphomannomutase 2, sequence (O15305 whole entry): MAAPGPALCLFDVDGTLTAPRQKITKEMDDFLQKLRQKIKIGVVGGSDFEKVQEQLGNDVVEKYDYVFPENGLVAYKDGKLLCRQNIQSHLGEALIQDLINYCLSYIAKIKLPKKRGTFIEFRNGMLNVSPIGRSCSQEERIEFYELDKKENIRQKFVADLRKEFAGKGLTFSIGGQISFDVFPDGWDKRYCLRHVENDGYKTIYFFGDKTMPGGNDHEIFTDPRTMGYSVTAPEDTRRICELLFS
Hexokinase, sequence (Q38C41 whole entry): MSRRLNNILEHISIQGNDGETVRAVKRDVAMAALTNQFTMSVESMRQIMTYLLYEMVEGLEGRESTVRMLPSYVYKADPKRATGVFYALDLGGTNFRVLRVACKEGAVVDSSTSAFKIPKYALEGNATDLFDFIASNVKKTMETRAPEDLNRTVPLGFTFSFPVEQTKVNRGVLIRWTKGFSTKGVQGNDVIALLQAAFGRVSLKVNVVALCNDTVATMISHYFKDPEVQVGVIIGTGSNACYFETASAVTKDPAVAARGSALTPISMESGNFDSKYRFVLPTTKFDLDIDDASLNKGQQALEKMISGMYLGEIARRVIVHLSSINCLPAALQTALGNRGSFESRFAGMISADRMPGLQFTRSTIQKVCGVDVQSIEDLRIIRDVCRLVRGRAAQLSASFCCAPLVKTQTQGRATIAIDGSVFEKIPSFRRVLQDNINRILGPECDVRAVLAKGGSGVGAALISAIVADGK
Beta-lactamase (Pseudomonas aeruginosa, UniProt Q79MP6), sequence (Q79MP6 whole entry): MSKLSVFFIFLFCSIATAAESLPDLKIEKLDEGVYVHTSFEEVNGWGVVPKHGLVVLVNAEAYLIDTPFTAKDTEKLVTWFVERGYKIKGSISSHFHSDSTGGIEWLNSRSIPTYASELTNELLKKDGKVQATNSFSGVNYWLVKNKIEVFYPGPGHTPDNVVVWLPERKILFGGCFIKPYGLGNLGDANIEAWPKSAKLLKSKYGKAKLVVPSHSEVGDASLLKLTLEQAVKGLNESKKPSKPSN
Nonstructural protein 1, sequence (Q194T2 whole entry): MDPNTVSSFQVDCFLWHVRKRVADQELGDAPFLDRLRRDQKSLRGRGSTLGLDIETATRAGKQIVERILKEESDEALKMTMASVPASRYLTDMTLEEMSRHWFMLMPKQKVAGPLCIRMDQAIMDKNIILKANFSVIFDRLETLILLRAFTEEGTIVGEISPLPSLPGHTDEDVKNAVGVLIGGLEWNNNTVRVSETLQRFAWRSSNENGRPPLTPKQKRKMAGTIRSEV
ORF 73, sequence (O40947 whole entry): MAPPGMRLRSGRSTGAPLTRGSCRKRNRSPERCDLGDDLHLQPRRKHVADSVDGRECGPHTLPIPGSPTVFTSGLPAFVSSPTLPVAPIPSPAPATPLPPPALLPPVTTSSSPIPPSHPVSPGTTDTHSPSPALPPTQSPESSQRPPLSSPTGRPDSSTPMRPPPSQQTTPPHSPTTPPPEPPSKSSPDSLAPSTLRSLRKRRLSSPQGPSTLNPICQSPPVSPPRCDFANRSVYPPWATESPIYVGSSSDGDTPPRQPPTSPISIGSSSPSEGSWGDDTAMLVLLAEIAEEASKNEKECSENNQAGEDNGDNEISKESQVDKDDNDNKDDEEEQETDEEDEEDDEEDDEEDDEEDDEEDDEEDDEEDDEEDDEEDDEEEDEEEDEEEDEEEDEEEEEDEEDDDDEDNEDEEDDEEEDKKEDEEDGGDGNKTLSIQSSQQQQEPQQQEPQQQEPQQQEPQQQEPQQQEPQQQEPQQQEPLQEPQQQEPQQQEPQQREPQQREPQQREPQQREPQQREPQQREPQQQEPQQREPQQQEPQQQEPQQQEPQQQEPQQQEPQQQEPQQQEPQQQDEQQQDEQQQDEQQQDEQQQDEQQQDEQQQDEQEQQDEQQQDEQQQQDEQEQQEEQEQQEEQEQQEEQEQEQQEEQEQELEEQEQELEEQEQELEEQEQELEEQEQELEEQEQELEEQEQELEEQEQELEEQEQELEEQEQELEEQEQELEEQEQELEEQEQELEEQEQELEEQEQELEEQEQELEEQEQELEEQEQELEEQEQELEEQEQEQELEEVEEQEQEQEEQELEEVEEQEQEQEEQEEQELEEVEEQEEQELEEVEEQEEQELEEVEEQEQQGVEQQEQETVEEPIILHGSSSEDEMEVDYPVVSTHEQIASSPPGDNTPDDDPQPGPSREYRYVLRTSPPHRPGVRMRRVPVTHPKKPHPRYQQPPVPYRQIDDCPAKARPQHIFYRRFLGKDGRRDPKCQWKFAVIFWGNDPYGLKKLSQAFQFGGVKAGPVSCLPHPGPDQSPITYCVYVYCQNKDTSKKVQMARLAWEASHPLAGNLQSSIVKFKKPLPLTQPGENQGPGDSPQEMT
Cytochrome P450 2C19, sequence (P33261 whole entry): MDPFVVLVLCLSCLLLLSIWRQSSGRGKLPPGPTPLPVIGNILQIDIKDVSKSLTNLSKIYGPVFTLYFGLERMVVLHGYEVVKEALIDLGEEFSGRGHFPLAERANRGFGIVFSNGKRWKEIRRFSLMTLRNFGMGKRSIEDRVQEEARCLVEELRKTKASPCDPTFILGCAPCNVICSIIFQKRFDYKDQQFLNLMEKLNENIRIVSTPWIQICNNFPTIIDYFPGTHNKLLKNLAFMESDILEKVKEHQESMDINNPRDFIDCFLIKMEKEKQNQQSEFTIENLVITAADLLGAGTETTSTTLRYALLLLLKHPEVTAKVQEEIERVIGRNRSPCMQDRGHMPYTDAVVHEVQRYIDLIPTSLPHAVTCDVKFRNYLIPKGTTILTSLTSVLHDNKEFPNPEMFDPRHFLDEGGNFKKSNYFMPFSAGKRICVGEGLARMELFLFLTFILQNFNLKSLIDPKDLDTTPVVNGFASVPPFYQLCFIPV
G-protein coupled receptor 35, sequence (Q9HC97 whole entry): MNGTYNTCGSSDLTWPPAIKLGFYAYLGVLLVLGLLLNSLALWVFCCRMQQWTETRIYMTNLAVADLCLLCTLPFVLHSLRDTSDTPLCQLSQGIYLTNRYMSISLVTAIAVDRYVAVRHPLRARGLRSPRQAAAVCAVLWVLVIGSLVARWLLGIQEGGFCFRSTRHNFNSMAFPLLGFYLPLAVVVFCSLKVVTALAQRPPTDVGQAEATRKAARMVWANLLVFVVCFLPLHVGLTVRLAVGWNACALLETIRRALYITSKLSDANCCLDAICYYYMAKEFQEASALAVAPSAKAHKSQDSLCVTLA
Beta-lactamase (Salmonella choleraesuis (strain SC-B67), UniProt Q5J463), sequence (Q5J463 whole entry): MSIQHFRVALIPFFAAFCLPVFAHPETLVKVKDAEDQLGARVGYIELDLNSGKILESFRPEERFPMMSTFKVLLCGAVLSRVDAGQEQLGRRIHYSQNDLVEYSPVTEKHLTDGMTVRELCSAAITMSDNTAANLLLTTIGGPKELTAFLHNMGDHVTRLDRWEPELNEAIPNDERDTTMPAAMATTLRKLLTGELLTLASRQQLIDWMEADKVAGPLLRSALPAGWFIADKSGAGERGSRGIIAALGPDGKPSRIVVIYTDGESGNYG
Cytochrome P450 2D6, sequence (P10635 whole entry): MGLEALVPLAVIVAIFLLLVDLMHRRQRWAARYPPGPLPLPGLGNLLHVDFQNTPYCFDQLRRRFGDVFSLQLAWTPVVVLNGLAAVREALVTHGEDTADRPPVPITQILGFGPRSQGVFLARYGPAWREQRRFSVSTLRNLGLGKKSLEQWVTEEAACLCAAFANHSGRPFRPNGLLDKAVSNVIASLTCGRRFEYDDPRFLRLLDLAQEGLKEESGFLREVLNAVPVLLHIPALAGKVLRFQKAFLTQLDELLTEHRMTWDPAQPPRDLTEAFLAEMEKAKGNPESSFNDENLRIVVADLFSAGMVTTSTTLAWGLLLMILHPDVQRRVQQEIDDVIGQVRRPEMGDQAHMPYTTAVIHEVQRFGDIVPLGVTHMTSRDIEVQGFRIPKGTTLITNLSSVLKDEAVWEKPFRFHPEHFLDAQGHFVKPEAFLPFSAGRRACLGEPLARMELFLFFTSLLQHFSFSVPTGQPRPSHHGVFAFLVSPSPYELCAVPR

SMILES: COCCCNc1c(O)nc2cccc3c2c1-c1ccccc1C3=O
- IC50 (Beta-lactamase [1]): 2.11 µM (active)
- IC50 (Beta-lactamase [2]): 0.89 µM (active)
- AC50 (HeLa): 66.1 µM (active)
- AC50 (ORF 73): 0.526 µM (active)
- EC50 (Insulin-degrading enzyme [3]): > 54.7 µM (inactive)
- EC50 (Insulin-degrading enzyme [4]): > 54.7 µM (inactive)
- IC50 (HEK293 [5]): > 89.2 µM (inactive)
- AC50 [6]: 1.57 µM (active)
- EC50 (HEK293 [7]): > 54.7 µM (inactive)

SMILES: CCc1cc(C(c2cccc(OC)c2)N2CCOCC2)c(NC(=O)c2ccccc2)s1 (stereo not drawn)
- EC50 [8]: 1.88 µM (active)

SMILES: COc1cc(-c2nnc3sc(-c4cccs4)nn23)cc(OC)c1OC
- IC50 [9]: 1.64 µM (active)
- IC50 [10]: 13.9 µM (inactive)

SMILES: CCCCN1C(=O)NC(=O)/C(=C(O)\C=C\c2c[nH]c3ccccc23)C1=O
- IC50 [11]: 3.1 µM (active)
- EC50 [12]: 6.02 µM (active)

SMILES: Cc1onc(-c2ccccc2)c1C(=O)NNC(=S)NC(=O)/C=C/c1ccccc1
- EC50 [8]: 5.31 µM (active)
- EC50 [13]: 4.22 µM (active)
- EC50 [12]: 3.32 µM (active)

SMILES: Cc1ccc(OCC(=O)NNC(=O)CCC(=O)NCc2ccccc2)cc1
- AC50 (Cytochrome P450 2C19): 0.00562 µM (inconclusive)
- AC50 (Cytochrome P450 2D6): inconclusive

SMILES: CCCOc1ccccc1N=C(N)Nc1nc(C)cc(C)n1
- IC50 [9]: 1.29 µM (active)
- IC50 [10]: 2.56 µM (active)

SMILES: O=C(NC(=S)NNC(=O)c1ccccc1O)c1cccs1
- IC50 (Exodeoxyribonuclease V): 79.9 µM (inactive)
- IC50 (Nonstructural protein 1): 10.6 µM (active)
- IC50 [14]: 66.1 µM (inactive)
- IC50 [15]: > 122 µM (inactive)

SMILES: COc1ccc(C(=O)Nc2cc(Cl)ccc2[N+](=O)[O-])cc1
- IC50 (Hexokinase): > 25 µM (inactive)

SMILES: N#Cc1ccc(NC(=O)Cn2sc3ccccc3c2=O)cc1
- IC50 (Hexokinase): 6.97 µM (active)

SMILES: CN(C)c1ccc(-n2sc3ccccc3c2=O)cc1
- IC50 [16]: 21.4 µM (active)
- IC50 (Phosphomannomutase 2): > 100 µM (inactive)
- IC50 [17]: 11.4 µM (inactive)

SMILES: O=c1c2ccccc2sn1-c1cccc(S(=O)(=O)Nc2ccc(Cl)cc2)c1
- IC50 [16]: 1.59 µM (active)
- IC50 (Phosphomannomutase 2): 9.44 µM (active)
- IC50 [17]: 8.2 µM (inactive)
